Laboratory results taken from the supplement of paper PMC10307832.

Legend:
Experiment in all cases: relative viability (nuclei count vs DMSO), 5 days (fraction); higher = more cells survive
[1] = compound: CC1=CC=C(C=C1)C(=O)CN2C3=C(CCCC3)SC2=N [Pifithrin_alpha] + O=C(CCCCCCC(=O)Nc1ccccc1)NO [Vorinostat] (partner 1 µM)
Procedure, shortened: (§1)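 Lung cancer cell lines in 1536-well plates got either a single drug or a fixed anchor-drug dose together with five library-drug doses (not always all listed) in √10 steps, by pin tool, on the day after seeding. Nuclei were counted after 5 days, and relative viability is the treated-to-vehicle ratio of nuclei counts. Values are medians of duplicate plates.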

Bemcentinib + Phenformin = compound: Nc1nc(Nc2ccc3c(c2)CC[C@@H](N2CCCC2)CC3)nn1-c1cc2c(nn1)-c1ccccc1CCC2 [Bemcentinib] + N=C(N)NC(=N)NCCc1ccccc1 [Phenformin] (partner 250 µM)
Procedure, shortened: as §1

Axitinib + Linsitinib = compound: CNC(=O)c1ccccc1Sc1ccc2c(/C=C/c3ccccn3)n[nH]c2c1 [Axitinib] + C[C@]1(O)C[C@@H](c2nc(-c3ccc4ccc(-c5ccccc5)nc4c3)c3c(N)nccn32)C1 [Linsitinib] (partner 1 µM)
Procedure, shortened: as §1

[2] = compound: CC1=CC=C(C=C1)C(=O)CN2C3=C(CCCC3)SC2=N [Pifithrin_alpha] + Cc1cc(Nc2cc(N3CCN(C)CC3)nc(Sc3ccc(NC(=O)C4CC4)cc3)n2)n[nH]1 [Tozasertib] (partner 0.1 µM)
Procedure, shortened: as §1

| Cell Line | relative viability ([1]; first compound 1 µM) | relative viability ([1]; first compound 3.162 µM) | relative viability ([1]; first compound 10 µM) | relative viability ([1]; first compound 31.62 µM) | relative viability ([1]; first compound 100 µM) | relative viability (Bemcentinib + Phenformin; first compound 0.04 µM) | relative viability (Bemcentinib + Phenformin; first compound 0.1265 µM) | relative viability (Bemcentinib + Phenformin; first compound 0.4 µM) | relative viability (Bemcentinib + Phenformin; first compound 1.265 µM) | relative viability (Bemcentinib + Phenformin; first compound 4 µM) | relative viability (Axitinib + Linsitinib; first compound 0.005 µM) | relative viability (Axitinib + Linsitinib; first compound 0.01581 µM) | relative viability (Axitinib + Linsitinib; first compound 0.05 µM) | relative viability (Axitinib + Linsitinib; first compound 0.1581 µM) | relative viability (Axitinib + Linsitinib; first compound 0.5 µM) | relative viability ([2]; first compound 1 µM) | relative viability ([2]; first compound 3.162 µM) | relative viability ([2]; first compound 10 µM) | relative viability ([2]; first compound 100 µM) | relative viability ([2]; first compound 31.62 µM) |
| --- | --- | --- | --- | --- | --- | --- | --- | --- | --- | --- | --- | --- | --- | --- | --- | --- | --- | --- | --- | --- |
| NCI-H2023 | 0.726 | 0.577 | 0.545 | 0.334 | 0.464 | 0.398 | 0.445 | 0.424 | 0.423 | 0.365 | 0.687 | 0.635 | 0.698 | 0.636 | 0.736 | 0.247 | 0.177 | 0.209 | 0.167 | – |
| NCI-H2085 | 0.648 | 0.737 | 0.71 | 0.616 | 0.623 | 0.694 | 0.776 | 0.688 | 0.572 | 0.697 | 1.02 | 1 | 0.845 | 0.794 | 1 | 0.828 | 0.467 | 0.427 | 0.489 | 0.478 |
| NCI-H2087 | 0.777 | 0.877 | 0.968 | 0.672 | 0.618 | 0.435 | 0.481 | 0.52 | 0.492 | 0.487 | 1.06 | 0.905 | 0.96 | 0.699 | 0.968 | 0.245 | 0.422 | 0.206 | 0.152 | – |
| NCI-H2126 | 0.433 | 0.719 | 0.738 | 0.716 | 0.763 | 0.502 | 0.496 | 0.51 | 0.596 | 0.568 | 0.696 | 0.724 | 0.728 | 0.667 | 0.676 | 0.568 | 0.772 | 0.602 | 0.432 | 0.596 |
| NCI-H2228 | 0.831 | 0.663 | 0.721 | 0.387 | 0.374 | 0.157 | 0.329 | 0.395 | 0.346 | 0.295 | 0.674 | 0.625 | 0.633 | 0.735 | 0.58 | 0.247 | 0.147 | 0.209 | 0.135 | 0.154 |
| NCI-H2347 | 0.541 | 0.533 | 0.685 | 0.459 | 0.536 | 0.423 | 0.447 | 0.329 | 0.364 | 0.334 | 1.07 | 0.929 | 1.08 | 1.07 | 0.914 | 0.614 | 0.543 | 0.382 | 0.501 | 0.412 |
| NCI-H2405 | – | 0.931 | 0.743 | 0.734 | 0.785 | 0.409 | 0.412 | 0.385 | 0.372 | 0.376 | 0.945 | 1 | 1.07 | 1 | 1.11 | 0.708 | 0.697 | 0.573 | 0.627 | 0.573 |
| NCI-H3122 | 0.878 | 0.978 | 1.03 | 0.828 | 0.898 | – | 0.412 | 0.366 | 0.358 | 0.381 | 1.02 | 0.991 | 1.05 | 1.05 | 1.07 | 0.438 | 0.325 | 0.375 | 0.44 | – |
| PC-3 [JPC-3] | – | 0.61 | – | 0.609 | 0.639 | 0.477 | 0.454 | 0.473 | 0.497 | 0.448 | 0.948 | – | 0.972 | 0.944 | 0.986 | 0.943 | 0.896 | 0.629 | 0.704 | 0.635 |
